ChEMBL document CHEMBL1201862, “PubChem BioAssay data set” (2004)
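Step 1: Grow cells in 96-well plates. Step 2: Expose to compound for 48 hours at 5 concentrations. Step 3: Interpolate endpoints linearly; if unreached, use highest concentration. GI50 is the concentration that inhibits growth by half.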 Activity calls are given as the source filed them. Cut-off read from the data, not from the text of the source: active = GI50 up to about 1.1 µM and inactive = higher.

Key:
Assay in all cases: NCI-60 cell line screen, 48 h
[1] = tested on: 786-0
[2] = tested on: Hs-578T
[3] = tested on: MDA-MB-435
[4] = tested on: HL-60
[5] = tested on: HCC 2998
[6] = tested on: T47D
[7] = tested on: ACHN
[8] = tested on: MCF7
[9] = tested on: RPMI-8226
[10] = tested on: OVCAR-4
[11] = tested on: UACC-62
[12] = tested on: SNB-19
[13] = tested on: PC-3
[14] = tested on: RXF 393
[15] = tested on: COLO 205
[16] = tested on: SK-MEL-5
[17] = tested on: CCRF-CEM
[18] = tested on: SK-MEL-2
[19] = tested on: MDA-MB-231
[20] = tested on: OVCAR-3
[21] = tested on: SR
[22] = tested on: NCI-H460
[23] = tested on: SN12C
[24] = tested on: KM12
[25] = tested on: CAKI-1
[26] = tested on: IGROV-1
[27] = tested on: SF-295
[28] = tested on: A549
[29] = tested on: OVCAR-5
[30] = tested on: M14
[31] = tested on: DU-145
[32] = tested on: EKVX
[33] = tested on: SF-268
[34] = tested on: HCT-116
[35] = tested on: NCI-H226
[36] = tested on: NCI-H522
[37] = tested on: MOLT-4
[38] = tested on: LOX IMVI
[39] = tested on: BT-549
[40] = tested on: TK-10
[41] = tested on: Malme-3M
[42] = tested on: HOP-92
[43] = tested on: HCT-15
[44] = tested on: HOP-62
[45] = tested on: UO-31
[46] = tested on: K562
[47] = tested on: HT-29
[48] = tested on: A498
[49] = tested on: SF-539
[50] = tested on: OVCAR-8
[51] = tested on: U-251
[52] = tested on: SK-OV-3
[53] = tested on: UACC-257
[54] = tested on: NCI/ADR-RES
[55] = tested on: SW-620
[56] = tested on: NCI-H23

Cc1ccc(OC2CC(n3cnc4c(=O)[nH]c(Br)nc43)OC2Oc2ccc(C)cc2)cc1 (stereo unspecified)
GI50 [1]: 26.3 µM (inactive)
GI50 [2]: 24.5 µM (inactive)
GI50 [3]: 24 µM (inactive)
GI50 [4]: 30.3 µM (inactive)
GI50 [5]: 24 µM (inactive)
GI50 [6]: 24.8 µM (inactive)
GI50 [7]: 19.8 µM (inactive)
GI50 [8]: 23.5 µM (inactive)
GI50 [9]: 34.4 µM (inactive)
GI50 [10]: 37 µM (inactive)
GI50 [11]: 23.7 µM (inactive)
GI50 [12]: 21.5 µM (inactive)
GI50 [13]: 22.6 µM (inactive)
GI50 [14]: 22.5 µM (inactive)
GI50 [15]: 31 µM (inactive)
GI50 [16]: 22.4 µM (inactive)
GI50 [17]: 23.1 µM (inactive)
GI50 [18]: 26.8 µM (inactive)
GI50 [19]: 23 µM (inactive)
GI50 [20]: 18.5 µM (inactive)
GI50 [21]: 18.1 µM (inactive)
GI50 [22]: 20.6 µM (inactive)
GI50 [23]: 26.2 µM (inactive)
GI50 [24]: 29 µM (inactive)
GI50 [25]: 24.9 µM (inactive)
GI50 [26]: 24.4 µM (inactive)
GI50 [27]: 21.7 µM (inactive)
GI50 [28]: 22.7 µM (inactive)
GI50 [29]: 21.4 µM (inactive)
GI50 [30]: 24.9 µM (inactive)
GI50 [31]: 24.7 µM (inactive)
GI50 [32]: 23.8 µM (inactive)
GI50 [33]: 22.6 µM (inactive)
GI50 [34]: 29.2 µM (inactive)
GI50 [35]: 34.5 µM (inactive)
GI50 [36]: 21.2 µM (inactive)
GI50 [37]: 23.9 µM (inactive)
GI50 [38]: 26.2 µM (inactive)
GI50 [39]: 26.9 µM (inactive)
GI50 [40]: 23.2 µM (inactive)
GI50 [41]: 22.9 µM (inactive)
GI50 [42]: 22.4 µM (inactive)
GI50 [43]: 30.3 µM
GI50 [44]: 24.1 µM (inactive)
GI50 [45]: 19.1 µM (inactive)
GI50 [46]: 17.1 µM (inactive)
GI50 [47]: 28.6 µM (inactive)
GI50 [48]: > 100 µM (inactive)
GI50 [49]: 20.2 µM (inactive)
GI50 [50]: 25.3 µM (inactive)
GI50 [51]: 29.1 µM (inactive)
GI50 [52]: 34.5 µM (inactive)
GI50 [53]: 25 µM (inactive)
GI50 [54]: 28.7 µM (inactive)
GI50 [55]: 44.4 µM (inactive)
GI50 [56]: 26.9 µM (inactive)
